Experimental data from patent US10952992B2, “Methods of treating intraocular pressure with activators of Tie-2” (Aerpio Pharmaceuticals, Inc., priority 2015, dated 2021).
Several values for one entry are separate records, joined by “and”; a condition that tells them apart may be missing. Equal values may be shown once.

Columns and labels:
[1] = Example 2 vitreous humor concentrations; format: in vivo, male New Zealand White rabbits; conditions: for Average Peak Concentration, Vitreous Humor: suspension
Protocol: (§1) To measure the concentration of Compound 1 in plasma and ocular tissues following topical ocular, subcutaneous, and intravitreal administration, New Zealand White rabbits were administered Compound 1, and plasma and ocular samples were collected at pre-determined time points. Compound 1 formulations were prepared fresh on each day of dosing.
(§2) Ocular tissue samples from both eyes of each animal were collected and weights were recorded. Plasma and ocular tissue sample concentrations of Compound 1 were determined by LC-MS/MS.
(§3) Animals were anesthetized for ocular (topical) and intravitreal dosing following the 12IA7 IACUC protocol. Each rabbit received a bolus dose of test formulation either via topical ocular administration 3 times daily on Days 1 and 2 (at 0, 6, and 12 hours), and once on Day 3 (at 0 hours) into both eyes; via intravitreal administration into both eyes once on Day 1 (at 0 hours); or via subcutaneous administration 2 times daily on Days 1 and 2 (at 0 and 8 hours) and once daily on Day 3 (at 0 hours). Doses were given within an approximately 1 hour window each day where applicable.
On Day 1, for intravitreal administration, or on Day 3, for topical ocular and subcutaneous administration, at the appropriate ocular tissue collection time points, animals were euthanized and both eyes were enucleated immediately. Following enucleation, each eye was rinsed with phosphate-buffered saline. Ocular tissue samples from both eyes of each animal were collected at predetermined time points and weights were recorded. All the samples were frozen immediately on dry ice, and stored at −60° C. to −80° C. pending bioanalysis.
(§4) An LC-MS/MS method was developed for the determination of Compound 1 in rabbit aqueous tissues (plasma, aqueous and vitreous humor) and solid ocular tissue samples. A pre-study standard curve was analyzed to determine the specificity, range, and lower limit of quantitation of the method. Plasma and tissue homogenate study samples were extracted and analyzed. All the samples were treated identically to the standards.
(§5) One eight-point standard curve was used in each analytical batch. To be accepted, each batch must have had at least five of eight standards with accuracy within ±20% of nominal, except at the lower limit of quantification (LLOQ), where ±25% was acceptable.

[2] = Example 2 plasma concentrations and pharmacokinetics after topical ocular, subcutaneous, intravitreal administration; format: in vivo, male New Zealand White rabbits
Protocol: as §1, §2
New Zealand White rabbits weighing 2.5 to 3.5 kg were used on this study. Rabbits were housed one per cage. Animals were not fasted and only healthy animals with no ocular illness were used. Two rabbits per group were sacrificed at each of four ocular tissue sampling time points for a total of eight rabbits per group.
as §3
Each blood sample was collected on Day 3 post dose at pre-determined time points from the rabbits via an ear vessel and placed into chilled polypropylene tubes containing sodium heparin as an anticoagulant. Samples were spun by centrifuge at 4° C. and 3,000× g for 5 minutes. Samples were maintained chilled throughout processing. Each plasma sample was placed on dry ice and stored in a freezer at −60° C. to −80° C. pending bioanalysis.
as §4, §5
Pharmacokinetic parameters were calculated from the time course of the plasma concentration. The maximum plasma concentration (Cmax) and time to the maximum plasma drug concentration (Tmax) were the observed values for each concentration-time profiles. The area under the plasma drug concentration-time curve (AUClast, with last being from time 0 to the last quantifiable point) was calculated using the trapezoidal formula. The mean residence time MRTlast was calculated as a ratio of AUMClast (area under the first movement curve) to AUClast.

[3] = Group 3 (subcutaneous 5 mg/kg/dose, suspension), 0.5 hr
[4] = Group 3 (subcutaneous 5 mg/kg/dose, suspension), 2.0 hr, BLOQ = below 0.2 ng/mL
[5] = Group 5 (intravitreal 2.5 mg/eye, suspension), 6.0 hr
[6] = Group 5 (intravitreal 2.5 mg/eye, suspension), 24 hr
[7] = Group 5 (intravitreal 2.5 mg/eye, suspension), 48 hr
[8] = Group 3: subcutaneous 5 mg/kg/dose, 40 mM phosphate buffer pH 4.0 + 2.5% dextrose suspension
[9] = Group 3: subcutaneous 5 mg/kg/dose, 40 mM phosphate buffer pH 4.0 + 2.5% dextrose suspension, 0.25 hr
[10] = Group 3: subcutaneous 5 mg/kg/dose, 40 mM phosphate buffer pH 4.0 + 2.5% dextrose suspension, 0.50 hr
[11] = Group 3: subcutaneous 5 mg/kg/dose, 40 mM phosphate buffer pH 4.0 + 2.5% dextrose suspension, 1.0 hr
[12] = Group 3: subcutaneous 5 mg/kg/dose, 40 mM phosphate buffer pH 4.0 + 2.5% dextrose suspension, 2.0 hr
[13] = Group 3: subcutaneous 5 mg/kg/dose, 40 mM phosphate buffer pH 4.0 + 2.5% dextrose suspension, 4.0 hr
[14] = Group 3: subcutaneous suspension, normalized by nominal dose 5 mg/kg
[15] = Group 5: intravitreal 2.5 mg/eye (~1.54 mg/kg), 40 mM phosphate buffer pH 4.0 suspension
[16] = Group 5: intravitreal 2.5 mg/eye (~1.54 mg/kg), 40 mM phosphate buffer pH 4.0 suspension, 1.0 hr
[17] = Group 5: intravitreal 2.5 mg/eye (~1.54 mg/kg), 40 mM phosphate buffer pH 4.0 suspension, 3.0 hr
[18] = Group 5: intravitreal 2.5 mg/eye (~1.54 mg/kg), 40 mM phosphate buffer pH 4.0 suspension, 6.0 hr
[19] = Group 5: intravitreal 2.5 mg/eye (~1.54 mg/kg), 40 mM phosphate buffer pH 4.0 suspension, 24.0 hr
[20] = Group 5: intravitreal 2.5 mg/eye (~1.54 mg/kg), 40 mM phosphate buffer pH 4.0 suspension, 48.0 hr
[21] = Group 5: intravitreal 2.5 mg/eye (~1.54 mg/kg), 40 mM phosphate buffer pH 4.0 suspension, 72.0 hr
[22] = Group 5: intravitreal suspension, normalized by nominal dose 1.54 mg/kg

COC(=O)N[C@@H](Cc1ccccc1)C(=O)N[C@@H](Cc1ccc(NS(=O)(=O)O)cc1)c1csc(-c2cccs2)n1 [Compound 1 free acid]
vitreous humor Average Conc. [1, 3]: 0.40 ng/g | vitreous humor Conc. OS [1, 3]: 0.227 ng/mL | vitreous humor Average Conc. ([1]; Group 3 (subcutaneous 5 mg/kg/dose, suspension), 1.0 hr): 0.41 ng/g | vitreous humor Conc. OS ([1]; Group 3 (subcutaneous 5 mg/kg/dose, suspension), 1.0 hr, BLOQ = below 0.2 ng/mL): BLOQ | vitreous humor Conc. OD [1, 4]: BLOQ | vitreous humor Conc. OS [1, 4]: BLOQ | vitreous humor Average Conc. ([1]; Group 3 (subcutaneous 5 mg/kg/dose, suspension), 4.0 hr): 0.41 ng/g | vitreous humor Conc. OD ([1]; Group 3 (subcutaneous 5 mg/kg/dose, suspension), 4.0 hr, BLOQ = below 0.2 ng/mL): BLOQ | Average Peak Concentration, Vitreous Humor ([1]; Group 3: subcutaneous 5 mg/kg/dose): 0.40 ng/g | vitreous humor Average Conc. [1, 5]: 479750 ng/g | vitreous humor Conc. OD [1, 5]: 592000 ng/mL and 432000 ng/mL | vitreous humor Average Conc. [1, 6]: 408750 ng/g | vitreous humor Conc. OD [1, 6]: 296000 ng/mL and 491000 ng/mL | vitreous humor Conc. OS [1, 6]: 528000 ng/mL and 320000 ng/mL | vitreous humor Average Conc. [1, 7]: 97800 ng/g | vitreous humor Conc. OD [1, 7]: 75900 ng/mL and 68300 ng/mL | vitreous humor Conc. OS [1, 7]: 148000 ng/mL and 99000 ng/mL | vitreous humor Average Conc. ([1]; Group 5 (intravitreal 2.5 mg/eye, suspension), 72 hr): 65350 ng/g | Average Peak Concentration, Vitreous Humor ([1]; Group 5: intravitreal 1.54 mg/kg/dose): 479750 ng/g | plasma AUClast (± SE) [2, 8]: 0.864 ± 0.069 µg·h/mL and 0.864 µg·h/mL | plasma AUC∞ [2, 8]: 1.198 µg·h/mL | plasma Cmax (± SE) [2, 8]: 0.395 ± 0.17 µg/mL and 0.395 µg/mL | plasma MRTlast [2, 8]: 1.58 h | plasma t1/2 [2, 8]: 2.12 h | plasma tmax [2, 8]: 0.25 h | plasma Average conc. [2, 9]: 395 ng/mL | plasma Conc., individual rabbit [2, 9]: 0.225 µg/mL and 0.565 µg/mL | plasma Average conc. [2, 10]: 337 ng/mL | plasma Conc., individual rabbit [2, 10]: 0.272 µg/mL and 0.401 µg/mL | plasma Average conc. [2, 11]: 295 ng/mL | plasma Conc., individual rabbit [2, 11]: 0.3 µg/mL and 0.289 µg/mL | plasma Average conc. [2, 12]: 206 ng/mL | plasma Conc., individual rabbit [2, 12]: 0.194 µg/mL and 0.217 µg/mL | plasma Average conc. [2, 13]: 110 ng/mL | plasma Conc., individual rabbit [2, 13]: 0.111 µg/mL and 0.108 µg/mL | plasma AUClast, dose normalized [2, 14]: 173 ± 13.8 kg·ng·h/mL/mg and 173 kg·ng·h/mL/mg | plasma AUC∞, dose normalized [2, 14]: 240 kg·ng·h/mL/mg | plasma AUClast (± SE) [2, 15]: 0.707 ± 0.0531 µg·h/mL and 0.707 µg·h/mL | plasma AUC∞ [2, 15]: 0.746 µg·h/mL | plasma Cmax (± SE) [2, 15]: 0.0253 ± 0.0093 µg/mL and 0.0253 µg/mL | plasma MRTlast [2, 15]: 19.1 h | plasma t1/2 [2, 15]: 16.5 h | plasma tmax [2, 15]: 1.00 h | plasma Average conc. [2, 16]: 25.3 ng/mL | plasma Conc., individual rabbit [2, 16]: 0.0346 µg/mL and 0.016 µg/mL | plasma Average conc. [2, 17]: 24.4 ng/mL | plasma Conc., individual rabbit [2, 17]: 0.0284 µg/mL and 0.0204 µg/mL | plasma Average conc. [2, 18]: 23.1 ng/mL | plasma Conc., individual rabbit [2, 18]: 0.022 µg/mL and 0.0241 µg/mL | plasma Average conc. [2, 19]: 12.3 ng/mL | plasma Conc., individual rabbit [2, 19]: 0.00996 µg/mL and 0.0147 µg/mL | plasma Average conc. [2, 20]: 3.63 ng/mL | plasma Conc., individual rabbit [2, 20]: 0.00269 µg/mL and 0.00457 µg/mL | plasma Average conc. [2, 21]: 1.65 ng/mL | plasma Conc., individual rabbit [2, 21]: 0.00183 µg/mL and 0.00146 µg/mL | plasma tmax ([2]; Group 5: intravitreal 2.5 mg/eye (~1.54 mg/kg), 40 mM phosphate buffer pH 4.0 suspension, listed as Compound 1 (free acid)): 1 h | plasma AUClast, dose normalized [2, 22]: 459 ± 34.5 kg·ng·h/mL/mg and 459 kg·ng·h/mL/mg | plasma AUC∞, dose normalized [2, 22]: 484 kg·ng·h/mL/mg

COC(=O)N[C@@H](Cc1ccccc1)C(=O)N[C@@H](Cc1ccc(NS(=O)(=O)O)cc1)c1csc(-c2cccs2)n1 [Compound 1]
systemic exposure, as measured in plasma ([2]; all routes and formulations): confirmed
